Assay results taken from patent publication US20150045433A1, “METHODS AND COMPOSITIONS FOR INDUCING PHYSIOLOGICAL HYPERTROPHY” (THE REGENTS OF THE UNIVERSITY OF COLORADO, A BODY CORPORATE, priority 2009, published 2015).
Entries after “also recorded” stand apart in the source; their conditions may differ.

Experiments:
[1] = test system: neonatal rat ventricular myocytes (NRVMs); assay: NRVM cell size / hypertrophy (a-actinin staining, Coulter Counter); format: cell-based
Experimental: Primary culture cardiomyocytes prepared from neonatal rats were treated with fasted and post-fed serum samples. Twenty four hours later the cells were removed from the culturing dish and analyzed for changes in cell size by immunostaining or by automatic analyzer such as Coulter Counter.
In other experiments, neonatal rat cardiac myocytes (NRVMs) were prepared according to the method described in Waspe et al. (1990). In brief, cells were obtained from the hearts of Sprague-Dawley rat pups (1-2 days old) by trypsinization and plated in MEM medium (Hanks' salts) with 5% calf serum. After 48 h in culture, cells were transferred to serum-free medium supplemented with transferring and insulin (each 10 μg/ml). Cells were maintained in 60- or 35-mm culture dishes at a density of 200,000 cells/ml. Contaminating non-muscle cells were kept at <10% by pre-plating and addition of 0.1 mM bromodeoxyuridine to the medium though day 3 of culture.
Before treating the cells, serum samples were thawed and heat inactivated at 58° C. for 30 min. […]
Cardiomyocytes grown on gelatin-coated coverslips were infected with Ad Aqp7 for 48 h. […] Images were captured at a 40x magnification with a fluorescence microscope (Nikon E800) equipped with a digital camera (AxioCam) and Axiovision, version 3.0.6.36 imaging software (Carl Zeiss, Thornwood, NY). The surface areas were measured using NIH image software (Image J) and at least 100 individualized cells were analyzed per each experiment. Cell size was also determined by particle size analyzer, Coulter Counter Multisizer 3 ([…]).
Inhibition of fatty acid transport blocks serum-induced NRVM hypertrophy. […] NRVMs were treated with serum (2%) in the presence and absence of SSO (400 μM) for 48 hours and cell size was determined using a Coulter Counter.
Individual fatty acids were complexed to BSA as described by de Vries et al. (1997), which is hereby incorporated by reference. […] NRVM gene expression and mean cell diameter were determined after either 24 or 48 hours, respectively. […]

AQP7 mRNA = AQP7 mRNA expression in neonatal rat cardiomyocytes by qPCR; format: cell-based; details: for AQP7 mRNA expression: fasted serum (2%) plus individual fatty acid (C14: 10, 33, 100 μM; C16: 33, 100, 300 μM; C16:1: 3, 10, 33 μM), 48 hours
Experimental: Individual fatty acids were complexed to BSA as described by de Vries et al. (1997), which is hereby incorporated by reference. […] An equal volume of Na2CO3 (10 mM) was added and the ethanol was evaporated at 60° C. under continuous N2 flow. The fatty acid mix was added dropwise to 10% BSA. BSA/fatty acid complexes were then dialyzed four times at 4° C. during 4-6 hours in NH4HCO3 (0.1 M). Complexes were then frozen, lyophilized overnight, and resuspended in NRVM rinse media (MEM/PB12/Hepes) for a final concentration of 7 mM. NRVMs were treated with fasted serum, 1 day post-fed serum, or fasted serum+individual fatty acids. […] NRVM gene expression and mean cell diameter were determined after either 24 or 48 hours, respectively.
Dose-dependent effects of individual fatty acids on AQP7 expression. […] Fasted serum (2% final) and fatty acids were diluted in serum-free media (MEM/Hepes/PB12) containing insulin, trnsferrin, BSA, and BrdU. Cells were treated for 48 hours and AQP7 mRNA expression was determined using qPCR with 18S as the normalizing gene.
siRNA studies. Rat AQP7 mRNA sequence was analyzed for potential small interfering RNA (siRNA) target regions using a sequence identification tool (Ambion, Inc., Austin, Tex.). Potential target sequences were transcribed from oligonucleotide templates using the Silencer siRNA Construction kit (Ambion, Inc., Austin, Tex.). To test for the ability of siRNAs to effectively reduce AQP7 expression, NRVMs were transfected with siRNA (100 nM) using Lipofectamine Plus reagent as specified by the manufacturer (Invitrogen, Carlsbad, Calif.). Several rat AQP7-specific siRNA sequences (#1: 5′-[…]-3′ (SEQ ID NO:22); #2: […]-3′ (SEQ ID NO:23); #3 5′-[…]-3′ (SEQ ID NO:24)) were tested for efficacy of gene knockdown using qPCR. […] A nonspecific siRNA (Silencer Negative Control #2; Ambion, Inc., Austin, Tex.) was used as a negative control.

[2] = test system: fetal gene program (β-myosin heavy chain, ANF, BNP, skeletal actin, SERCA); assay: Pathologic fetal gene expression in NRVMs by qPCR; format: cell-based, rat; details: 48 hours
Experimental: FIG. 4. […] Neonatal rat cardiomyocytes were untreated (lightest gray bars) or treated with fasted serum (light gray bars), post-fed serum (black bars) and Phenylephrin (PE; dark gray bars). After 48 hours, RNA was isolated and cDNA was obtained by standard procedures. The expression of several pathologic hypertrophic markers was measured by quantitative real-time PCR including β-myosin heavy chain, atrial natriuretic factor (ANF), brain natriuretic peptide (BNP), skeletal actin and sarcoplasmic reticulum calcium ATPase (SERCA).
Total RNA was extracted by TRizol (Invitrogen). 0.5 μg of RNA was reverse transcribed into cDNA using the SuperScript III first-strand cDNA synthesis kit (Invitrogen). Typically, 0.1 ng of cDNA, 12.5 nM of each primer, and Power SYBER Green PCR Master Mix (Applied Biosystems, Foster City, Calif.) were used in the reverse transcription (RT)-PCR reactions. Reactions were performed using the ABI7300 system. The primers used are presented on Table 1.
Total RNA was extracted from mouse or python ventricle and NRVMs using TRI Reagent (Invitrogen). 0.5 to 2.0 μg of RNA was reverse transcribed into cDNA using the SuperScript III first-strand cDNA synthesis kit (Invitrogen). Quantitative real time PCR reactions were performed using the ABI7300 system (Applied Biosystems, Foster City, Calif., USA) and the Power SYBR Green PCR Master Mix (Applied Biosystems). […]

## CCCCCCCCCCCCCC(=O)O [C14, tetradecanoic acid]
[1]; fasted plasma (2%) supplemented with fatty acids at 1 DPF levels (C14 40 μM; C16 137 μM; C16:1 7.5 μM), 48 hours
  cell size: significant increase in cell size
AQP7 mRNA; fasted plasma supplemented with FFAs, relative to 1 DPF plasma
  Aqp7 mRNA levels: comparable levels observed with 1 DPF plasma
AQP7 mRNA
  AQP7 mRNA expression: tended to increase AQP7 mRNA expression in a dose-dependent manner

## CCCCCCCCCCCCCCCC(=O)O [C16, hexadecanoid acid]
AQP7 mRNA
  AQP7 mRNA expression: tended to increase AQP7 mRNA expression in a dose-dependent manner

## CCCCCC/C=C\CCCCCCCC(=O)O [C16:1, (z)-9-hexadecenoic acid]
AQP7 mRNA
  AQP7 mRNA expression: tended to increase AQP7 mRNA expression in a dose-dependent manner

## CCCCCCCC/C=C\CCCCCCCC(=O)ON1C(=O)CC(S(=O)(=O)O)C1=O (centres unmarked) [SSO, sulfo-N-succinimidyl oleate]
[1]; SSO 400 μM, 2% 1DPF fed serum/plasma
  effect on cell growth (hypertrophy) induced by fed serum/plasma: completely blocks the cell growth induced by the fed-serum; also recorded: completely blocked the pro-hypertrophic effect of fed plasma; also recorded: significantly reduced
[1]; presence of SSO, no serum
  cell size, no serum (control): smaller

## CNC[C@H](O)c1cccc(O)c1 [phenylephrine]
[2]
  activation of fetal gene program / pathological gene expression: robust activation of pathological patterns of gene expression
